# Assay results reported in patent US20020137929A1, “1 - (3-heterocyclylphenyl) isothiourea, -isourea, -guanidine and -amidine herbicidal agents” (Intellectual Property Department, BASF Aktiengesellschaft, priority 1998, published 2002).
# Experiments:
# [1] = test system: TRZAWR (Wheat, Winter, cv Riband); test: Preemergence herbicidal evaluation; assay type: in vivo, Triticum aestivum; conditions: rated 4-5 weeks after treatment
# Summary of the method: (§1)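 Greenhouse preemergence test: seed-soil mix sown on ~1 inch soil; aqueous acetone spray at equivalent of ~0.0156–0.500 kg/ha; greenhouse-held and watered; scored 0–9 visually at 4–5 weeks.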
# [2] = test system: SAGPY (Arrowhead (Pygmaea)); test: Preemergence weed control under flooded paddy conditions; assay type: in vivo, Sagittaria pygmaea; conditions: rated 3-4 weeks after treatment
# Summary of the method: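 Visual injury scored 0-9 against control three to four weeks post-treatment, greenhouse-grown. Application: acetone/water (50/50) solutions dosed directly into flood water (1.5-3 cm over silt loam, planted top 0.5 cm), roughly 0.0313 to 0.500 kg/ha active ingredient.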
# ORYSAT (Rice, Tebonnet) = test: Preemergence herbicidal evaluation; assay type: in vivo, Oryza sativa, (L.) Tebonnet; conditions: rated 4-5 weeks after treatment
# Summary of the method: as §1
# [3] = test system: TRZAWR (Wheat, Winter, cv Riband); test: Postemergence herbicidal evaluation; assay type: in vivo, Triticum aestivum; conditions: postemergence
# Summary of the method: (§2)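 Herbicidal effect was judged by eye on a 0–9 scale covering stand, vigor, deformity, size and chlorosis, compared with controls, four to five weeks after seedlings about two weeks old were sprayed (40 psi, ~0.0156–0.500 kg/ha).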
# AMBEL (Ragweed, Common) = test: Preemergence herbicidal evaluation; assay type: in vivo, Ambrosia artemisifolia; conditions: rated 4-5 weeks after treatment
# Summary of the method: as §1
# ZEAMX (Corn, Field) = test: Postemergence herbicidal evaluation; assay type: in vivo, Zea mays; conditions: postemergence
# Summary of the method: as §2
# ABUTH (Velvetleaf) [4] = test: Postemergence herbicidal evaluation; assay type: in vivo, Abutilon theophrasti; conditions: postemergence
# Summary of the method: as §2
# ABUTH (Velvetleaf) [5] = test: Preemergence herbicidal evaluation; assay type: in vivo, Abutilon theophrasti; conditions: rated 4-5 weeks after treatment
# Summary of the method: as §1
# CYPSE (Flatsedge) = test: Postemergence weed control under flooded paddy conditions; assay type: in vivo, Cyperus serotinus; conditions: postemergence weeds
# Summary of the method: (§3)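 Containers holding 3–5 cm weeds and rice at 1.5–2.5 leaves are flooded to 1.5–3 cm above soil. Compound in 50/50 v/v aqueous/acetone is then added directly to the water, about 0.0313–0.500 kg/ha. Plants are kept in the greenhouse and rated 0–9 visually at 3–4 weeks.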
# [6] = test system: SAGPY (Arrowhead (Pygmaea)); test: as above; assay type: in vivo, Sagittaria pygmaea; conditions: postemergence weeds
# Summary of the method: as §3
# CASOB (Sicklepod) = test: Preemergence herbicidal evaluation; assay type: in vivo, Cassia obtusifolia; conditions: rated 4-5 weeks after treatment
# Summary of the method: as §1
# [7] = test system: IPOHE (Morningglory, Ivyleaf); test: Postemergence herbicidal evaluation; assay type: in vivo, Ipomoea hederacea; conditions: postemergence
# Summary of the method: as §2
# [8] = test system: GLXMAW (Soybean, Williams); test: Preemergence herbicidal evaluation; assay type: in vivo, Glycine max, (L.) Merr. cv Williams; conditions: rated 4-5 weeks after treatment
# Summary of the method: as §1
# GALAP (Galium) = test: Preemergence herbicidal evaluation; assay type: in vivo, Galium aparine; conditions: rated 4-5 weeks after treatment
# Summary of the method: as §1
# [9] = rate 0.0313 kg/ha, 3-4 weeks after treatment
# [10] = rate 0.0625 kg/ha, 3-4 weeks after treatment
# [11] = rate 0.1250 kg/ha, 3-4 weeks after treatment
# [12] = rate 0.2500 kg/ha, 3-4 weeks after treatment
# [13] = rate 0.5000 kg/ha, 3-4 weeks after treatment
# [14] = Rate 0.0313 kg/ha, rated 3 to 4 weeks after treatment
# [15] = Rate 0.0625 kg/ha, rated 3 to 4 weeks after treatment
# [16] = Rate 0.1250 kg/ha, rated 3 to 4 weeks after treatment
# [17] = Rate 0.2500 kg/ha, rated 3 to 4 weeks after treatment
smiles,measurement,setting,value
CC1SC(=Nc2cc(N3C(=O)C4=C(CCCC4)C3=O)c(F)cc2Cl)N(C)C1=O (centres unmarked) [Compound 4],TRZAWR preemergence herbicidal rating,[1]; rate 0.1250 kg/ha,2.0
same,TRZAWR preemergence herbicidal rating,[1]; rate 0.2500 kg/ha,3.0
same,TRZAWR preemergence herbicidal rating,[1]; rate 0.5000 kg/ha,3.0
same,Herbicidal rating SAGPY,[2]; 0.0313 kg/ha,0.0
same,Herbicidal rating SAGPY,[2]; 0.0625 kg/ha,0.0
same,Herbicidal rating SAGPY,[2]; 0.1250 kg/ha,0.0
same,Herbicidal rating SAGPY,[2]; 0.2500 kg/ha,0.0
same,Herbicidal rating SAGPY,[2]; 0.5000 kg/ha,0.0
same,ORYSAT preemergence herbicidal rating,"ORYSAT (Rice, Tebonnet); rate 0.1250 kg/ha",0.0
same,ORYSAT preemergence herbicidal rating,"ORYSAT (Rice, Tebonnet); rate 0.2500 kg/ha",2.0
same,ORYSAT preemergence herbicidal rating,"ORYSAT (Rice, Tebonnet); rate 0.5000 kg/ha",4.0
same,TRZAWR herbicidal rating,[3]; rate 0.0313 kg/ha,3.0
same,TRZAWR herbicidal rating,[3]; rate 0.0625 kg/ha,3.5
same,TRZAWR herbicidal rating,[3]; rate 0.1250 kg/ha,4.0
same,TRZAWR herbicidal rating,[3]; rate 0.2500 kg/ha,4.5
same,TRZAWR herbicidal rating,[3]; rate 0.5000 kg/ha,4.5
same,AMBEL preemergence herbicidal rating,"AMBEL (Ragweed, Common); rate 0.1250 kg/ha",0.0
same,AMBEL preemergence herbicidal rating,"AMBEL (Ragweed, Common); rate 0.2500 kg/ha",1.0
same,AMBEL preemergence herbicidal rating,"AMBEL (Ragweed, Common); rate 0.5000 kg/ha",4.0
same,ZEAMX herbicidal rating,"ZEAMX (Corn, Field); rate 0.0313 kg/ha",3.0
same,ZEAMX herbicidal rating,"ZEAMX (Corn, Field); rate 0.0625 kg/ha",3.5
same,ZEAMX herbicidal rating,"ZEAMX (Corn, Field); rate 0.1250 kg/ha",4.0
same,ZEAMX herbicidal rating,"ZEAMX (Corn, Field); rate 0.2500 kg/ha",4.0
same,ZEAMX herbicidal rating,"ZEAMX (Corn, Field); rate 0.5000 kg/ha",4.0
same,ABUTH herbicidal rating,ABUTH (Velvetleaf) [4]; rate 0.0313 kg/ha,2.0
same,ABUTH herbicidal rating,ABUTH (Velvetleaf) [4]; rate 0.0625 kg/ha,4.0
same,ABUTH herbicidal rating,ABUTH (Velvetleaf) [4]; rate 0.1250 kg/ha,9.0
same,ABUTH herbicidal rating,ABUTH (Velvetleaf) [4]; rate 0.2500 kg/ha,9.0
same,ABUTH herbicidal rating,ABUTH (Velvetleaf) [4]; rate 0.5000 kg/ha,9.0
same,ABUTH preemergence herbicidal rating,ABUTH (Velvetleaf) [5]; rate 0.1250 kg/ha,0.0
same,ABUTH preemergence herbicidal rating,ABUTH (Velvetleaf) [5]; rate 0.2500 kg/ha,2.0
same,ABUTH preemergence herbicidal rating,ABUTH (Velvetleaf) [5]; rate 0.5000 kg/ha,8.0
same,Herbicidal rating CYPSE,CYPSE (Flatsedge); [9],0.0
same,Herbicidal rating CYPSE,CYPSE (Flatsedge); [10],0.0
same,Herbicidal rating CYPSE,CYPSE (Flatsedge); [11],0.0
same,Herbicidal rating CYPSE,CYPSE (Flatsedge); [12],0.0
same,Herbicidal rating CYPSE,CYPSE (Flatsedge); [13],0.0
same,Herbicidal rating SAGPY,[6]; [9],0.0
same,Herbicidal rating SAGPY,[6]; [10],0.0
same,Herbicidal rating SAGPY,[6]; [11],0.0
same,Herbicidal rating SAGPY,[6]; [12],0.0
same,Herbicidal rating SAGPY,[6]; [13],0.0
same,CASOB preemergence herbicidal rating,CASOB (Sicklepod); rate 0.1250 kg/ha,0.0
same,CASOB preemergence herbicidal rating,CASOB (Sicklepod); rate 0.2500 kg/ha,2.0
same,CASOB preemergence herbicidal rating,CASOB (Sicklepod); rate 0.5000 kg/ha,7.0
"CCOC(=O)CN1C(=O)C(Cc2ccccc2OC(C)C(=O)O)S/C1=N/c1cc(-n2c(=O)cc(C(F)(F)F)n(C)c2=O)c(F)cc1Cl (centres unmarked) [Compound 114, 5-[o-(1-Carboxyethoxy)benzyl]-2-{{2-chloro-5-[3,6-dihydro-3-methyl-2,6-dioxo-4-(trifluoromethyl)-1(2H)-pyrimidinyl]-4-fluorophenyl}imino}-4-oxo-3-thiazolidineacetic acid, 3-ethyl ester]",Preemergence herbicidal rating TRZAWR,[1]; rate 0.0156 kg/ha,0.0
same,Preemergence herbicidal rating TRZAWR,[1]; rate 0.0313 kg/ha,0.0
same,Preemergence herbicidal rating TRZAWR,[1]; rate 0.0625 kg/ha,0.0
same,Preemergence herbicidal rating TRZAWR,[1]; rate 0.1250 kg/ha,1.0
same,Preemergence herbicidal rating TRZAWR,[1]; rate 0.2500 kg/ha,3.0
same,SAGPY herbicidal effect rating,[2]; 0.0313 kg/ha,3.5
same,SAGPY herbicidal effect rating,[2]; 0.0625 kg/ha,3.5
same,SAGPY herbicidal effect rating,[2]; 0.1250 kg/ha,3.5
same,SAGPY herbicidal effect rating,[2]; 0.2500 kg/ha,4.5
same,Preemergence herbicidal rating ORYSAT,"ORYSAT (Rice, Tebonnet); rate 0.0156 kg/ha",0.0
same,Preemergence herbicidal rating ORYSAT,"ORYSAT (Rice, Tebonnet); rate 0.0313 kg/ha",0.0
same,Preemergence herbicidal rating ORYSAT,"ORYSAT (Rice, Tebonnet); rate 0.0625 kg/ha",0.0
same,Preemergence herbicidal rating ORYSAT,"ORYSAT (Rice, Tebonnet); rate 0.1250 kg/ha",2.0
same,Preemergence herbicidal rating ORYSAT,"ORYSAT (Rice, Tebonnet); rate 0.2500 kg/ha",2.0
same,herbicidal rating TRZAWR,[3]; rate 0.0158 kg/ha,2.0
same,herbicidal rating TRZAWR,[3]; rate 0.0315 kg/ha,3.0
same,herbicidal rating TRZAWR,[3]; rate 0.0630 kg/ha,4.0
same,Preemergence herbicidal rating AMBEL,"AMBEL (Ragweed, Common); rate 0.0156 kg/ha",0.0
same,Preemergence herbicidal rating AMBEL,"AMBEL (Ragweed, Common); rate 0.0313 kg/ha",0.0
same,Preemergence herbicidal rating AMBEL,"AMBEL (Ragweed, Common); rate 0.0625 kg/ha",0.0
same,Preemergence herbicidal rating AMBEL,"AMBEL (Ragweed, Common); rate 0.1250 kg/ha",5.0
same,Preemergence herbicidal rating AMBEL,"AMBEL (Ragweed, Common); rate 0.2500 kg/ha",7.0
same,herbicidal rating IPOHE,[7]; rate 0.0158 kg/ha,9.0
same,herbicidal rating IPOHE,[7]; rate 0.0315 kg/ha,9.0
same,herbicidal rating IPOHE,[7]; rate 0.0630 kg/ha,9.0
same,herbicidal rating ZEAMX,"ZEAMX (Corn, Field); rate 0.0158 kg/ha",6.5
same,herbicidal rating ZEAMX,"ZEAMX (Corn, Field); rate 0.0315 kg/ha",7.0
same,herbicidal rating ZEAMX,"ZEAMX (Corn, Field); rate 0.0630 kg/ha",7.0
same,herbicidal rating ABUTH,ABUTH (Velvetleaf) [4]; rate 0.0158 kg/ha,9.0
same,herbicidal rating ABUTH,ABUTH (Velvetleaf) [4]; rate 0.0315 kg/ha,9.0
same,herbicidal rating ABUTH,ABUTH (Velvetleaf) [4]; rate 0.0630 kg/ha,9.0
same,Preemergence herbicidal rating ABUTH,ABUTH (Velvetleaf) [5]; rate 0.0156 kg/ha,0.0
same,Preemergence herbicidal rating ABUTH,ABUTH (Velvetleaf) [5]; rate 0.0313 kg/ha,1.0
same,Preemergence herbicidal rating ABUTH,ABUTH (Velvetleaf) [5]; rate 0.0625 kg/ha,6.0
same,Preemergence herbicidal rating ABUTH,ABUTH (Velvetleaf) [5]; rate 0.1250 kg/ha,9.0
same,Preemergence herbicidal rating ABUTH,ABUTH (Velvetleaf) [5]; rate 0.2500 kg/ha,9.0
same,Herbicidal rating CYPSE,CYPSE (Flatsedge); [14],0.0
same,Herbicidal rating CYPSE,CYPSE (Flatsedge); [15],0.0
same,Herbicidal rating CYPSE,CYPSE (Flatsedge); [16],0.0
same,Herbicidal rating CYPSE,CYPSE (Flatsedge); [17],0.0
same,Herbicidal rating SAGPY,[6]; [14],0.0
same,Herbicidal rating SAGPY,[6]; [15],0.0
same,Herbicidal rating SAGPY,[6]; [16],0.0
same,Herbicidal rating SAGPY,[6]; [17],0.0
same,Preemergence herbicidal rating CASOB,CASOB (Sicklepod); rate 0.0156 kg/ha,0.0
same,Preemergence herbicidal rating CASOB,CASOB (Sicklepod); rate 0.0313 kg/ha,0.0
same,Preemergence herbicidal rating CASOB,CASOB (Sicklepod); rate 0.0625 kg/ha,1.0
same,Preemergence herbicidal rating CASOB,CASOB (Sicklepod); rate 0.1250 kg/ha,3.0
same,Preemergence herbicidal rating CASOB,CASOB (Sicklepod); rate 0.2500 kg/ha,9.0
same,Preemergence herbicidal rating GLXMAW,[8]; rate 0.0156 kg/ha,0.0
same,Preemergence herbicidal rating GLXMAW,[8]; rate 0.0313 kg/ha,1.0
same,Preemergence herbicidal rating GLXMAW,[8]; rate 0.0625 kg/ha,0.0
same,Preemergence herbicidal rating GLXMAW,[8]; rate 0.1250 kg/ha,2.0
same,Preemergence herbicidal rating GLXMAW,[8]; rate 0.2500 kg/ha,3.0
same,Preemergence herbicidal rating GALAP,GALAP (Galium); rate 0.0156 kg/ha,0.0
same,Preemergence herbicidal rating GALAP,GALAP (Galium); rate 0.0313 kg/ha,0.0
same,Preemergence herbicidal rating GALAP,GALAP (Galium); rate 0.0625 kg/ha,3.0
same,Preemergence herbicidal rating GALAP,GALAP (Galium); rate 0.1250 kg/ha,7.0
same,Preemergence herbicidal rating GALAP,GALAP (Galium); rate 0.2500 kg/ha,9.0
